Literature values in article PMC10712729, “A Phase I Trial of the Dual MET Kinase/OCT-2 Inhibitor OMO-1 in Metastatic Solid Malignancies Including MET Exon 14 Mutated Lung Cancer” (The Oncologist, 2023).

Legend:
[1] = in vivo; cited from earlier work
[2] = system: METex14 mutated NSCLC; design: method as in PMID 32469185, PMID 32877583; settings: METex14 mutated NSCLC ref 9, 10; cited from earlier work
[3] = design: method as in PMID 32469185, PMID 32877583; settings: cited from earlier work

SMILES: Cn1cc(-c2ccc3nnc(C(F)(F)c4ccc5ncccc5c4)n3n2)cn1 [JNJ-38877605]
- renal toxicity [1]: renal toxic properties

SMILES: CNC(=O)c1ccc(-c2cnc3ncc(Cc4ccc5ncccc5c4)n3n2)cc1F [capmatinib]
- median response duration [2]: 12.6 months
- object response rates [2]: 68%
- diarrhea, all grades [3]: 17%
- nausea, all grades [3]: 46%
- vomiting, all grades [3]: 26%

SMILES: CN1CCC(COc2cnc(-c3cccc(Cn4nc(-c5cccc(C#N)c5)ccc4=O)c3)nc2)CC1 [tepotinib]
- median response duration [2]: 10.8 months
- object response rates [2]: 43%
- diarrhea, all grades [3]: 22%
- nausea, all grades [3]: 26%
- vomiting, all grades [3]: 6%
